Measured values as given in patent US9670217B2, “Process for preparing chlorins and their pharmaceutical uses” (UNIVERSIDADE DE COIMBRA, priority 2008, dated 2017).

Columns and labels:
[1] = Triplet lifetime by laser flash photolysis; assay type: physicochemical; details: air-saturated ethanol
Description: Absorption spectra were recorded on a Shimadzu UV-2100 spectrophotometer or with a Carry 50 Biospectrophotometer (Varian, Mulgrave, USA). Fluorescence spectra were measured with a Spex Fluorolog 3 spectrophotometer, with correction for the wavelength dependence system (RCA C31034 photomultiplier), or with a PerkinElmer LS 50 spectrofluorimeter. Transient absorption spectra were measured with an Applied Photophysics LKS 60 nanosecond laser flash photolysis kinetic spectrometer, using the third harmonic of a Spectra-Physics Quanta Ray GCR 130-01 Nd/YAG laser for excitation, a Hamamatsu 1P28 photomultiplier and a Hewlett-Packard Infinium oscilloscope (1 GS/s). Flash photolysis measurements were made in the presence of air and in argon saturated solutions. Photoacoustic calorimetry employed the same Nd/YAG laser, a home-made front-face photoacoustic cell with a 2.25 MHz Panametrics transducer (model 5676) and a Tektronix DSA 601 transient recorder. Room-temperature singlet-oxygen phosphorescence was measured at 1270 nm with a Hamamatsu R5509-42 photomultiplier, cooled to 193 K in a liquid nitrogen chamber (Products for Research model PC176TSCE005), following laser excitation of aerated solutions at 355 nm, using an adapted Applied Photophysics spectrometer. Singlet oxygen emission at 1270 nm was also monitored with a liquid nitrogen-cooled germanium detector (North Coast) coupled to a Tectronix Digitizing scope (TDS 520B), following sample excitation with 5 ns laser pulses of the third harmonic (355 nm) generated by a Q-switched Nd:YAG laser (Continuum Surelite II).
The triplet-triplet absorption spectra and the triplet lifetimes of the photosensitisers (τT) were measured with the transient absorption spectra equipment described above, with excitation at 355 nm, where the solutions had absorbances between 0.25 and 0.30.
The triplet-triplet absorption spectra of the Luzitins measured in this work were in good agreement with that in the literature data for chlorins and bacteriochlorins. All triplet decays were clearly mono-exponential. […] Such values are consistent with diffusion limited energy transfer from the triplet state of the sensitizer to molecular oxygen through a charge-transfer interaction.

[2] = system: PC-3 (human prostate carcinoma); experiment: Cytotoxicity in the dark, resazurin assay; assay type: cell-based
Description: The cell lines employed in laser irradiation were the HT-29 (human colon carcinoma), PC-3 (human prostate carcinoma), SW2 (human small cell lung cancer), A-549 (human non-small cell lung cancer). S91/I3 (mouse melanoma) and CT26 (mouse colon carcinoma). They were used both for cytotoxicity and photocytotoxicity experiments. PC-3. SW2 and S91113 cells were cultured in RPMI-1640 medium (Sigma-Aldrich, Steinheim, Germany) and HT-29, A-549 and CT26 cells were cultured in Dulbecco's Modified Eagle Medium (DMEM) (Cambrex Bioscience, Verviers, Belgium). Both cell culture mediums were supplemented with 10% heat-inactivated Fetal Bovine Serum (FBS) (Cambrex Bioscience, Verviers, Belgium) and 100 IU/ml penicillin-100 μg/ml streptomycin (Cambrex Bioscience, Verviers, Belgium). The DMEM medium used for CT26 cells was also supplemented with HEPES 10 mM. Cell lines were maintained in 75 cm^2 flasks (Orange Scientific, Braine-l'Alleud, Belgium) at 37° C. in humidified atmosphere with 5% CO2. For the in vitro studies, cells at 85-90% confluence, were detached with Trypsin-Versene-EDTA solution (Cambrex Bioscience, Verviers, Belgium), counted and seeded in flat-bottom 96-well plates at the desired densities.
Cell viability assay. In the end of the experiences cell viability was evaluated by the resazurin reduction assay. Briefly, resazurin (Sigma-Aldrich, Steinhelm, Germany) stock solution (0.1 mg/ml in phosphate buffer saline (PBS) pH 7.4) was diluted 10% in culture medium without FBS or antibiotics and 200 μl were added to the cells in each well. Plates were incubated for 3-4 h at 37° C. The absorbance values of each well were measured at 540 nm and 630 nm using a microplate reader Multiskan Ex (Thermo-Electron Corporation, Vartaa, Finland).
Cytotoxicity. Cells were seeded in flat-bottom 96-well plates (Orange Scientific, Braine-l'Alleud, Belgium) in 100 μl of culture medium and were allowed to adhere overnight. The photosensitizer was added to the cells (diluted in 100 μl culture medium) at final concentrations between 0.01 and 1 mM. Each concentration was tested in quadruplicate. The incubation periods in the dark at 37° C. were two times the doubling time for the tested cell line. After the incubation the cell viability was evaluated. In parallel control experiments, cells were incubated without the drug. Cytotoxicity was quantified by expressing cell death relatively to untreated cells (% of control cells). The results were plotted as dose response curves (% of cell death as a function of the concentration of the DRUG), which allow the determination of the concentration that inhibit 50% of cell growth (IC50).

[3] = Fluorescence quantum yield; assay type: physicochemical; details: ethanol
Description: The absorptions of both reference and sample solutions were matched at ca 0.2 at the excitation wavelength of 515.5 nm, and the solutions were diluted by a factor 10 before collecting the fluorescence. The fluorescence quantum yield was obtained from the ratio of the fluorescence bands of the sample vs the reference, multiplied by the fluorescence quantum yield of the reference, 0.012 according to [12], after correction for the difference of refractive indexes of ethanol and toluene.
This is indicative of little aggregation between the molecules, which exist mostly as monomers at these concentrations in the solvents studied. Table 1 presents typical red and infrared molar absorption coefficients (εmax) and wavelength maxima. The same table also presents representative fluorescence quantum yields (ΦF) of Luzitins. The fluorescence quantum yields decrease of these molecules decrease in the presence of chlorine substituents, a fingerprint of the heavy atom effect expected for such molecules.

[4] = system: A-549 (human non-small cell lung carcinoma); experiment: Cell photosensitization, 748 nm diode laser, resazurin; assay type: cell-based; details: 6 J/cm^2 diode laser irradiation at 28.5 mW

Question: With `O=S(=O)(O)c1ccc(Cl)c(-c2c3nc(c(-c4cc(S(=O)(=O)O)ccc4Cl)c4ccc([nH]4)c(-c4cc(S(=O)(=O)O)ccc4Cl)c4nc(c(-c5cc(S(=O)(=O)O)ccc5Cl)c5ccc2[nH]5)CC4)CC3)c1` [Luzitin-Cl, 5,10,15,20-tetrakis(2-chloro-5-sulfonylphenyl)bacteriochlorin] as the compound, how does the “τT (air) triplet lifetime” value [1] read?
Answer: 240 nsec

Question: What about the IC50 ([2]; PC-3, incubation 72 h in the dark, read-out: IC50 dark toxicity) of the same compound?
Answer: 600 µM

Question: And the “ΦF (fluorescence quantum yield)” value [3]?
Answer: 0.0403

Question: Which results are given for `CNS(=O)(=O)c1ccc(F)c(-c2c3nc(c(-c4cc(S(=O)(=O)NC)ccc4F)c4ccc([nH]4)c(-c4cc(S(=O)(=O)NC)ccc4F)c4nc(c(-c5cc(S(=O)(=O)NC)ccc5F)c5ccc2[nH]5)CC4)CC3)c1` [Luzitin-FMet, 5,10,15,20-tetrakis(2-fluoro-5-N-methylsulfamoylphenyl)bacteriochlorin]?
Answer: concentration of sensitizer required to kill 90% of cells (LD90) [4]: 0.5 µM; ΦF (fluorescence quantum yield) [3]: 0.0589

Question: What does the source list for `O=S(=O)(O)c1ccc(Cl)c(-c2c3nc(c(-c4c(Cl)ccc(S(=O)(=O)O)c4Cl)c4ccc([nH]4)c(-c4c(Cl)ccc(S(=O)(=O)O)c4Cl)c4nc(c(-c5c(Cl)ccc(S(=O)(=O)O)c5Cl)c5ccc2[nH]5)CC4)CC3)c1Cl` [Luzitin-Cl2, 5,10,15,20-tetrakis(2,6-dichloro-3-sulfonylphenyl)bacteriochlorin]?
Answer: τT (air) triplet lifetime [1]: 226 nsec; highest concentration that causes relatively no effect in viability in the dark ([2]; PC-3, dark): 0.05 mM; ΦF (fluorescence quantum yield) [3]: 0.0062

Question: What does the source list for `CCNS(=O)(=O)c1ccc(Cl)c(-c2c3nc(c(-c4c(Cl)ccc(S(=O)(=O)NCC)c4Cl)c4ccc([nH]4)c(-c4c(Cl)ccc(S(=O)(=O)NCC)c4Cl)c4nc(c(-c5c(Cl)ccc(S(=O)(=O)NCC)c5Cl)c5ccc2[nH]5)CC4)CC3)c1Cl` [Luzitin-Cl2Et, 5,10,15,20-tetrakis(2,6-dichloro-3-N-ethylsulfamoylphenyl)bacteriochlorin]?
Answer: τT (air) triplet lifetime [1]: 265 nsec; concentration of sensitizer required to kill 90% of cells (LD90) [4]: 10 µM; ΦF (fluorescence quantum yield) [3]: 0.0081
